Reference: patent publication US20150176022A1, “HERBICIDE-RESISTANT SUNFLOWER PLANTS, POLYNUCLEOTIDES ENCODING HERBICIDE=RESISTANT ACETO HYDROXY ACID SYNTHASE LARGE SUBUNIT PROTEINS, AND METHODS OF USE” (priority 2013, published 2015)

What was measured:
Type in all cases: in vivo, Helianthus annuus
[1] = system: sunflower IR79 (Restorer Line, A205V); experiment: Greenhouse whole-plant imazapir dose response (Example 8); conditions: 14 DAT
Method: (§1) A greenhouse study was conducted to quantify and contrast the imazapir sensitivity of the mutants A122T and A205V in different genetic backgrounds at the whole plant level in sunflower. Seeds of the different sunflower lines that were used in this study were obtained under field conditions.
(§2) Seeds were sown in Petri dishes and, after germination, plantlets were transplanted to pots of 10 cm of diameter in a potting media consisting of equal parts of vermiculite, soil and sand. Plants were grown in a greenhouse under natural light conditions supplemented with 400 W sodium halide lamps to provide a 16 hrs daylength. Day/night temperatures were 25 and 20° C., respectively. At the V2 stage 10 plants of each genotype were randomly assigned to each treatment consisting of […] imazapir doses (0, 40, 80, 160, 240, 320, 400 and 480 g ai/ha), and a zero-time biomass determination. Experiment was arranged as a randomized block design with a full factorial (sunflower line×treatment) arrangement of treatments and 10 replications.
(§3) On the day of herbicide application ten plants of each genotype were cut at the cotyledonal node and dried at 60° C. for 48 hrs zero-time for dried weight determination. […] Height was determined as the distance between the cotyledonal node and the apex of each plant. For root biomass determination, each plant was taken from the pot and the potting media was washed out from the roots. Above ground biomass data from each line were converted to biomass accumulation after application by subtracting the appropriate average zero-time biomass from each sample. Dry biomass data were converted to percentages of the untreated control plants within each line to allow direct comparisons between groups.

[2] = system: sunflower TH10 (Restorer Line, A205V); experiment: as above; conditions: 14 DAT
Method: as §1, §2, §3

[3] = system: sunflower IB920 (Manteiner Line, A205V); experiment: as above; conditions: 14 DAT
Method: as §1, §2, §3

Sunflower line S4897 = experiment: Greenhouse spray test, injury rating (Example 5); conditions: Imazapyr 360 gm ai/ha, 14 DAT, scale 0=no injury to 9=dead plant
Excerpt: (§4) Sunflower lines S4897, Clearfield® sunflower varieties A, B, C and a conventional non-Clearfield variety were sprayed with three rates of imazamox (Raptor™), 100, 200 and 300 gm ai/ha plus 0.5% Sun It II and two rates of imazapyr (Arsenal™) 160 and 360 gm ai/ha plus 0.5% Sun It II when the plants were at the two to three leaf stage. Ratings were taken at 14 days after application (DAT) for injury. Injury was rated on a scale from 0 to 9 where 0=no injury to 9=dead plant. Twelve plants were sprayed per herbicide/rate treatment. Statistical analysis was conducted with STATGRAPHICS Plus 5.0 by using ANOVA and LSD procedures.
(§5) After plants were sprayed, it was realized that a height difference between S4897 and other sunflower varieties would have impacted the actual herbicide dose that was delivered. The spray boom height had been calibrated against S4897 and since the other varieties were taller and closer to the boom they would have received a greater dose of herbicide. Rates were recalibrated for the other varieties to determine the approximate dose they would have received. Assessments were made as presented in Table 2 since it was not possible to make a direct rate comparison due to the effect of the height. For example injury scores were compare for S4897 treated imazamox rate 100 gm ai/ha to the other varieties treated at 75 gm ai/ha. The treatment dose of 300 gm ai/ha for line S4897 was equivalent to the treatment of 200 gm ai/ha for the other varieties, which […].

[4] = system: Clearfield-Sunflower variety C; experiment: Greenhouse spray test, injury rating (Example 5); conditions: Imazapyr 240 gm ai/ha, 14 DAT, scale 0=no injury to 9=dead plant
Excerpt: as §4, §5

[5] = system: Conventional non-Clearfield sunflower variety; experiment: Greenhouse spray test, injury rating (Example 5); conditions: Imazapyr 240 gm ai/ha, 14 DAT, scale 0=no injury to 9=dead plant
Excerpt: as §4, §5

[6] = system: Clearfield-Sunflower variety A; experiment: Greenhouse spray test, injury rating (Example 5); conditions: Imazapyr 240 gm ai/ha, 14 DAT, scale 0=no injury to 9=dead plant
Excerpt: as §4, §5

[7] = system: Clearfield-Sunflower variety B; experiment: Greenhouse spray test, injury rating (Example 5); conditions: Imazapyr 240 gm ai/ha, 14 DAT, scale 0=no injury to 9=dead plant
Excerpt: as §4, §5

CC(C)C1(C)N=C(c2ncccc2C(=O)O)NC1=O (centres unmarked) [imazapir, imazapyr]
biomass accumulation (dry biomass, % of untreated) ([1]; 0.5× (40 g ai/ha)): 94.4%
plant height (% of untreated) ([1]; 0.5× (40 g ai/ha)): 92.8%
root dry weight (% of untreated) ([1]; 0.5× (40 g ai/ha)): 98.6%
biomass accumulation (dry biomass, % of untreated) ([1]; 1× (80 g ai/ha)): 74.0%
plant height (% of untreated) ([1]; 1× (80 g ai/ha)): 80.9%
root dry weight (% of untreated) ([1]; 1× (80 g ai/ha)): 53.4%
biomass accumulation (dry biomass, % of untreated) ([1]; 2× (160 g ai/ha)): 67.7%
plant height (% of untreated) ([1]; 2× (160 g ai/ha)): 74.9%
root dry weight (% of untreated) ([1]; 2× (160 g ai/ha)): 42.5%
biomass accumulation (dry biomass, % of untreated) ([1]; 3× (240 g ai/ha)): 49.1%
plant height (% of untreated) ([1]; 3× (240 g ai/ha)): 55.7%
root dry weight (% of untreated) ([1]; 3× (240 g ai/ha)): 38.4%
biomass accumulation (dry biomass, % of untreated) ([1]; 4× (320 g ai/ha)): 44.5%
plant height (% of untreated) ([1]; 4× (320 g ai/ha)): 52.8%
root dry weight (% of untreated) ([1]; 4× (320 g ai/ha)): 31.5%
biomass accumulation (dry biomass, % of untreated) ([1]; 5× (400 g ai/ha)): 40.1%
plant height (% of untreated) ([1]; 5× (400 g ai/ha)): 41.7%
root dry weight (% of untreated) ([1]; 5× (400 g ai/ha)): 23.3%
biomass accumulation (dry biomass, % of untreated) ([1]; 6× (480 g ai/ha)): 35.3%
plant height (% of untreated) ([1]; 6× (480 g ai/ha)): 33.2%
root dry weight (% of untreated) ([1]; 6× (480 g ai/ha)): 21.9%
Phytotoxicity Index ([2]; 0.5× (40 g ai/ha)): 0
biomass accumulation (dry biomass, % of untreated) ([2]; 0.5× (40 g ai/ha)): 99.2%
plant height (% of untreated) ([2]; 0.5× (40 g ai/ha)): 99.2%
root dry weight (% of untreated) ([2]; 0.5× (40 g ai/ha)): 90.3%
Phytotoxicity Index ([2]; 1× (80 g ai/ha)): 0
biomass accumulation (dry biomass, % of untreated) ([2]; 1× (80 g ai/ha)): 85.0%
plant height (% of untreated) ([2]; 1× (80 g ai/ha)): 98.1%
root dry weight (% of untreated) ([2]; 1× (80 g ai/ha)): 69.9%
Phytotoxicity Index ([2]; 2× (160 g ai/ha)): 3.1
biomass accumulation (dry biomass, % of untreated) ([2]; 2× (160 g ai/ha)): 58.1%
plant height (% of untreated) ([2]; 2× (160 g ai/ha)): 63.6%
root dry weight (% of untreated) ([2]; 2× (160 g ai/ha)): 41.3%
Phytotoxicity Index ([2]; 3× (240 g ai/ha)): 3.9
biomass accumulation (dry biomass, % of untreated) ([2]; 3× (240 g ai/ha)): 48.1%
plant height (% of untreated) ([2]; 3× (240 g ai/ha)): 51.9%
root dry weight (% of untreated) ([2]; 3× (240 g ai/ha)): 42.8%
Phytotoxicity Index ([2]; 4× (320 g ai/ha)): 5.9
biomass accumulation (dry biomass, % of untreated) ([2]; 4× (320 g ai/ha)): 28.8%
plant height (% of untreated) ([2]; 4× (320 g ai/ha)): 27.5%
root dry weight (% of untreated) ([2]; 4× (320 g ai/ha)): 22.3%
Phytotoxicity Index ([2]; 5× (400 g ai/ha)): 6.9
biomass accumulation (dry biomass, % of untreated) ([2]; 5× (400 g ai/ha)): 27.4%
plant height (% of untreated) ([2]; 5× (400 g ai/ha)): 28.0%
root dry weight (% of untreated) ([2]; 5× (400 g ai/ha)): 22.7%
Phytotoxicity Index ([2]; 6× (480 g ai/ha)): 6.7
biomass accumulation (dry biomass, % of untreated) ([2]; 6× (480 g ai/ha)): 24.9%
plant height (% of untreated) ([2]; 6× (480 g ai/ha)): 29.3%
root dry weight (% of untreated) ([2]; 6× (480 g ai/ha)): 16.4%
biomass accumulation (dry biomass, % of untreated) ([3]; 0.5× (40 g ai/ha)): 93.9%
plant height (% of untreated) ([3]; 0.5× (40 g ai/ha)): 96.2%
root dry weight (% of untreated) ([3]; 0.5× (40 g ai/ha)): 94.0%
biomass accumulation (dry biomass, % of untreated) ([3]; 1× (80 g ai/ha)): 87.9%
plant height (% of untreated) ([3]; 1× (80 g ai/ha)): 80.0%
root dry weight (% of untreated) ([3]; 1× (80 g ai/ha)): 89.6%
biomass accumulation (dry biomass, % of untreated) ([3]; 2× (160 g ai/ha)): 58.8%
plant height (% of untreated) ([3]; 2× (160 g ai/ha)): 61.5%
root dry weight (% of untreated) ([3]; 2× (160 g ai/ha)): 50.7%
biomass accumulation (dry biomass, % of untreated) ([3]; 3× (240 g ai/ha)): 46.4%
plant height (% of untreated) ([3]; 3× (240 g ai/ha)): 40.9%
root dry weight (% of untreated) ([3]; 3× (240 g ai/ha)): 37.3%
biomass accumulation (dry biomass, % of untreated) ([3]; 4× (320 g ai/ha)): 35.5%
plant height (% of untreated) ([3]; 4× (320 g ai/ha)): 27.9%
root dry weight (% of untreated) ([3]; 4× (320 g ai/ha)): 32.8%
plant height (% of untreated) ([3]; 5× (400 g ai/ha)): 30.0%
root dry weight (% of untreated) ([3]; 5× (400 g ai/ha)): 25.4%
biomass accumulation (dry biomass, % of untreated) ([3]; 6× (480 g ai/ha)): 29.4%
root dry weight (% of untreated) ([3]; 6× (480 g ai/ha)): 19.4%
Injury (Sunflower line S4897; listed as Imazapyr): 0.8 a
Injury (Sunflower line S4897; listed as imazapyr): very little injury
Injury [4]: 4.9 c
Injury [5]: 8.2 days
Injury [6]: 5.0 c
Injury [7]: 4.3 b
